According to patent publication US10881698B2, “Diagnosis and treatment for respiratory tract diseases” (THE TRUSTEES OF THE UNIVERSITY OF PENNSYLVANIA, priority 2012, dated 2021):
Residue numbers refer to the chain shown, from its start. “And” between values parts separate entries of the source, which are not always exact repeats. Equal values may be shown once. Read-outs that look alike come from different tables or passages of the source.

Assays:
T2R38 [1] = assay: DAF-FM imaging of NO production in human sinonasal ALI cultures; format: cell-based; settings: for DAF-FM fluorescence increase: 5 min, PAV/AVI
T2R38 [2] = molecular target: T1, T2R38 (Homo sapiens, UniProt P59533, A262V); assay: Fluo-4 Ca2+ imaging in primary human sinonasal ALI cultures; format: cell-based; settings: AVI/AVI
T1 construct: T2R38 is expressed in human upper airway epithelium; endogenous in cells; host or cells: primary human sinonasal epithelial cells, air-liquid interface cultures from surgical patients
T1 sequence (P59533 1-333 A262V): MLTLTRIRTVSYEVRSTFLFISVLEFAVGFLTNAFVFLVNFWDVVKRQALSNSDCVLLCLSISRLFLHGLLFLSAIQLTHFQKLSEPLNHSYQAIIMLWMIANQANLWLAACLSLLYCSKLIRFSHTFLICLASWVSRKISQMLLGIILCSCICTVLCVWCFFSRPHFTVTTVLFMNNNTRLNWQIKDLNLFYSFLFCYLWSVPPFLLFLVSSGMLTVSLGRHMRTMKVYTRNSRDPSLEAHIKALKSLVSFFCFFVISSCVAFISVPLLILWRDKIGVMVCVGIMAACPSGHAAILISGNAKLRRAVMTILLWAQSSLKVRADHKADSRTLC

T2R38 [3] = assay: as above; format: cell-based
T2R38 [4] = molecular target: T2, T2R38 (Homo sapiens, UniProt P59533, A49P/I296V); assay: as above; format: cell-based; settings: for Average peak Fluo-4 F/Fo after 5 min stimulation with C6HSL: 200 μM C6HSL
T2 construct: T2R38 is expressed in human upper airway epithelium; endogenous in cells; host or cells: primary human sinonasal epithelial cells, air-liquid interface cultures from surgical patients
T2 sequence (P59533 1-333 A49P/I296V): T1 sequence (P59533 1-333 A262V) with A49P, V262A, I296V

sinonasal ALI cultures [5] = format: cell-based, human
Pseudomonas aeruginosa [6] = assay: Kill assay with ASL from stimulated sinonasal ALI cultures (CFU plating); format: cell-based
[7] = test system: acutely dissociated sinonasal ciliated epithelial cells; assay: Ca2+ and DAF-FM responses in acutely dissociated sinonasal ciliated cells; format: cell-based, human
T2R38 [8] = molecular target: T1, T2R38; assay: DAF-FM imaging of NO production in human sinonasal ALI cultures; format: cell-based; settings: for DAF-FM fluorescence increase: 5 min, AVI/AVI
T2R38 [9] = molecular target: T2, T2R38; assay: as above; format: cell-based; settings: for DAF-FM fluorescence increase: 5 min, PAV/PAV; for Effect on C4HSL-induced NO production in taster cultures: C4HSL 200 μM, U73122 5 μM, 20 min pre-incubation
PAV-TAS2R38 = molecular target: T3, PAV-TAS2R38 (Homo sapiens, UniProt P59533, A49P/I296V); assay: Fluo-4 calcium mobilization in HEK293 cells expressing hTAS2R38 (PAV) and Gα16gustducin44; format: cell-based; settings: PAV variant
T3 construct: first 45 amino acids of rat SSTR-3 (N); host or cells: HEK293 (peakRapid), transient transfection, pcDNA3.1(+)
T3 sequence (P59533 1-333 A49P/I296V): T1 sequence (P59533 1-333 A262V) with A49P, V262A, I296V

sinonasal ALI cultures [10] = assay: Mucociliary transport velocity of fluorescent microspheres on sinonasal ALI cultures; format: cell-based, human; settings: for Concentration required to stimulate a significant increase in mucociliary transport: PAV/PAV cultures
AVI-TAS2R38 = molecular target: T4, AVI-TAS2R38 (Homo sapiens, UniProt P59533, A262V); assay: Fluo-4 calcium mobilization in HEK293 cells expressing hTAS2R38 (AVI) and Gα16gustducin44; format: cell-based; settings: AVI variant
T4 construct: first 45 amino acids of rat SSTR-3 (N); host or cells: HEK293 (peakRapid), transient transfection, pcDNA3.1(+)
T4 sequence (P59533 1-333 A262V): T1 sequence (P59533 1-333 A262V)

beta-defensin 2 = assay: Beta-defensin 2 secretion by sinonasal cultures; format: cell-based, human; settings: denatonium- or absinthin-stimulated cultures
Pseudomonas aeruginosa [11] = test system: Pseudomonas aeruginosa
nasal epithelial cells = assay: Fluo-4 calcium signaling with denatonium in nasal epithelial cells (sinonasal ALI cultures); format: cell-based, human; settings: for Effect on denatonium induced calcium signaling: 2 mM sucrose or 1 mM sucralose

CC(=O)NC(C(=O)O)C(C)(C)SN=O (racemic) [SNAP, S-Nitroso-N-Acetyl-D,L-Penicillamine]
DAF-FM responses between the genotypes (control stimuli) (T2R38 [1]; SNAP 100 μM, ionomycin): did not yield differential DAF-FM responses between the genotypes

Nc1ncnc2c1ncn2[C@@H]1O[C@H](COP(=O)(O)OP(=O)(O)OP(=O)(O)O)[C@@H](O)[C@H]1O [ATP]
Peak Fluo-4 F/Fo during 10 μM ATP stimulation (T2R38 [2]; 10 μM ATP): 2.90±0.09 | Peak F/Fo during stimulation with 1 μM ATP (T2R38 [3]; L-NAME (50 μM)): 2.0±0.26 | Peak F/Fo during stimulation with 1 μM ATP (T2R38 [3]; control (no L-NAME)): 1.9±0.21 | ATP-induced Ca2+ responses versus TAS2R38 genotype (T2R38 [3]; ATP 1 μM, PAV/PAV, PAV/AVI, AVI/AVI cultures): did not correlate with TAS2R38 genotype | Peak Fluo-4 F/Fo during 10 μM ATP stimulation (T2R38 [4]; PAV/PAV): 2.96±0.08 | Peak Fluo-4 F/Fo during 10 μM ATP stimulation (T2R38 [4]; PAV/PAV+U73122): 2.82±0.1 | Peak CBF after ATP stimulation between genotypes (sinonasal ALI cultures [5]): not significantly different between cultures of different genotypes | Bactericidal response on stimulation of cells (Pseudomonas aeruginosa [6]; ATP stimulation): no bactericidal response was observed

CCCC(=O)N[C@H]1CCOC1=O [C4HSL, N-butyryl-L-homoserine lactone]
Fluo-4 fluorescence after 5 min C4HSL (T2R38 [2]; 200 μM C4HSL): 1.10±0.04 | Fluo-4 fluorescence after 5 min C4HSL (T2R38 [3]; 200 μM C4HSL, PAV/AVI): 1.14±0.04 | Fluo-4 fluorescence after 5 min C4HSL (T2R38 [4]; 200 μM C4HSL, PAV/PAV): 1.29±0.03 | Ca2+ responses in acutely dissociated sinonasal ciliated cells [7]: occurred | Peak CBF with C4HSL (sinonasal ALI cultures [5]): 1.17±0.02 and 1.02±0.02 | DAF-FM fluorescence increase (T2R38 [8]; 10 μM): 50±2 | DAF-FM fluorescence increase (T2R38 [8]; 100 μM): 69±8 | DAF-FM fluorescence increase (T2R38 [1]; 10 μM): 68±6 | DAF-FM fluorescence increase (T2R38 [1]; 100 μM): 130±17 | DAF-FM fluorescence increase (T2R38 [9]; 10 μM): 132±14 | DAF-FM fluorescence increase (T2R38 [9]; 100 μM): 230±30 | Peak Fluo-4 fluorescence (ΔF/F) (PAV-TAS2R38; 200 μM): 61±2% | Increase in velocity (sinonasal ALI cultures [10]; 0.1 μM, PAV/PAV): 1.07±0.02 | Increase in velocity (sinonasal ALI cultures [10]; 1 μM, PAV/PAV): 1.12±0.03 | Increase in velocity (sinonasal ALI cultures [10]; 10 μM, PAV/PAV): 1.21±0.04 | Increase in velocity (sinonasal ALI cultures [10]; 100 μM, AVI/AVI): 1.12±0.03 | Increase in velocity (sinonasal ALI cultures [10]; 100 μM, PAV/PAV): 1.47±0.07 | Concentration required to stimulate a significant increase in mucociliary transport (sinonasal ALI cultures [10]): 10 µM | Peak Fluo-4 fluorescence (ΔF/F) (AVI-TAS2R38; 200 μM): 0.3±0.4%

CCCCCC(=O)N[C@H]1CCOC1=O [C6HSL, N-Hexanoyl-L-homoserine lactone]
Average peak Fluo-4 F/Fo after 5 min stimulation with C6HSL (T2R38 [2]; 200 μM C6HSL): 1.21±0.09 | Average peak Fluo-4 F/Fo after 5 min stimulation with C6HSL (T2R38 [4]; PAV/PAV): 1.52±0.074 | Average peak Fluo-4 F/Fo after 5 min stimulation with C6HSL (T2R38 [4]; PAV/PAV+U73122): 1.10±0.09

CCCCCCCCCC(=O)CC(=O)N[C@H]1CCOC1=O [C12HSL, N-3-oxo-dodecanoyl-L-homoserine lactone]
Fluo-4 fluorescence after 10 min C12HSL stimulation (T2R38 [2]; 100 μM C12HSL): 1.14±0.01 | Fluo-4 fluorescence after 10 min C12HSL stimulation (T2R38 [3]; 100 μM C12HSL, PAV/AVI): 1.28±0.04 | Fluo-4 fluorescence after 10 min C12HSL stimulation (T2R38 [4]; 100 μM C12HSL, PAV/PAV): 1.52±0.08 | Peak CBF with C12HSL (sinonasal ALI cultures [5]): 1.25±0.05 and 1.03±0.01 | DAF-FM fluorescence increase (T2R38 [8]; 10 μM): 44±9 | DAF-FM fluorescence increase (T2R38 [8]; 100 μM): 64±16 | DAF-FM fluorescence increase (T2R38 [1]; 10 μM): 77±13 | DAF-FM fluorescence increase (T2R38 [1]; 100 μM): 109±25 | DAF-FM fluorescence increase (T2R38 [9]; 10 μM): 235±20 | DAF-FM fluorescence increase (T2R38 [9]; 100 μM): 351±65 | Peak Fluo-4 fluorescence (ΔF/F) (PAV-TAS2R38; 100 μM): 73±5% | Increase in velocity (sinonasal ALI cultures [10]; 0.1 μM, PAV/PAV): 1.09±0.02 | Increase in velocity (sinonasal ALI cultures [10]; 1 μM, PAV/PAV): 1.23±0.04 | Increase in velocity (sinonasal ALI cultures [10]; 10 μM, PAV/PAV): 1.48±0.04 | Increase in velocity (sinonasal ALI cultures [10]; 100 μM, AVI/AVI): 1.14±0.03 | Increase in velocity (sinonasal ALI cultures [10]; 100 μM, PAV/PAV): 1.64±0.04 | Concentration required to stimulate a significant increase in mucociliary transport (sinonasal ALI cultures [10]): 1 µM | Peak Fluo-4 fluorescence (ΔF/F) (AVI-TAS2R38; 100 μM): 3±2%

COC(=O)[C@H](N)CCCN=C(N)N[N+](=O)[O-] [D-NAME]
Effect on HSL-stimulated CBF increase (sinonasal ALI cultures [5]): not

COC(=O)[C@@]1(OC)C[C@H]2O[C@]1(C)n1c3ccccc3c3c4c(c5c6ccccc6n2c5c31)C(=O)N(C)C4 [KT5823]
Effect on HSL-stimulated CBF increase (sinonasal ALI cultures [5]): blocked

CCCc1cc(=O)[nH]c(=S)[nH]1 [PROP, 6-n-propylthiouracil]
Intracellular DAF-FM fluorescence (NO production) (T2R38 [9]; apical application, PAV/PAV (taster) cells): stimulated an increase in intracellular DAF-FM fluorescence

COc1ccc2c(c1)CC[C@@H]1[C@@H]2CC[C@]2(C)[C@@H](NCCCCCCN3C(=O)C=CC3=O)CC[C@@H]12 [U73122]
Effect on beta-defensin secretion (beta-defensin 2): may be blocked | Effect on denatonium-induced antimicrobial response (Pseudomonas aeruginosa [6]; U73122 20 μM): inhibited | Effect on C4HSL-induced NO production in taster cultures (T2R38 [9]): blocked

COc1ccc2c(c1)CC[C@@H]1[C@@H]2CC[C@]2(C)[C@@H](NCCCCCCN3C(=O)CCC3=O)CC[C@@H]12 [U73343]
Effect on beta-defensin secretion (beta-defensin 2): had no effect | Effect on C4HSL-induced NO production in taster cultures (T2R38 [9]): had no effect on NO production

CC1(C)N([O])C(c2ccc(C(=O)O)cc2)=[N+]([O-])C1(C)C [cPTIO]
% green (viable) PAO1 (Pseudomonas aeruginosa [11]): 93±2%

C[C@H](CCC(=O)O)C[C@H](C)C[C@H](C)C(=O)/C=C(\O)[C@H](C)C[C@H](C)C/C=C/[C@@H](C)[C@@H](O)[C@@H](C)[C@@H](O)C[C@@H]1CC[C@@](C)([C@H]2CC[C@@](C)([C@@H](C)O)O2)O1 [ionomycin]
DAF-FM responses between the genotypes (control stimuli) (T2R38 [1]): did not yield differential DAF-FM responses between the genotypes

COc1ccc(OC(C)C(=O)O)cc1 (stereo not drawn) [lactisole]
Effect on glucose-mediated inhibition of bacterial kill (Pseudomonas aeruginosa [6]; lactisole 5 mM): reduced or reversed the glucose-mediated inhibition of bacterial kill | Effect on sucrose/sucralose inhibition of denatonium calcium signaling (nasal epithelial cells; sweet receptor antagonist): substantially eliminates the inhibition

OCc1ccccc1O[C@@H]1O[C@H](CO)[C@@H](O)[C@H](O)[C@H]1O [salicin]
Peak Fluo-4 fluorescence (ΔF/F) (PAV-TAS2R38; 10 mM): 1.4±0.3% | Peak Fluo-4 fluorescence (ΔF/F) (AVI-TAS2R38; 10 mM): 3±1%

OC[C@H]1O[C@H](O[C@]2(CCl)O[C@H](CCl)[C@@H](O)[C@@H]2O)[C@H](O)[C@@H](O)[C@H]1Cl [sucralose]
Effect on denatonium induced calcium signaling (nasal epithelial cells): inhibits denatonium induced calcium signaling

OC[C@H]1O[C@@](CO)(O[C@H]2O[C@H](CO)[C@@H](O)[C@H](O)[C@H]2O)[C@@H](O)[C@@H]1O [sucrose]
Effect on denatonium induced calcium signaling (nasal epithelial cells): inhibits denatonium induced calcium signaling

CC(C)[C@]12CC(=O)[C@H](C)[C@H]1C2 [thujone]
NO production with non-T2R38 bitter ligands (T2R38 [9]): did not stimulate NO production | Ca2+ responses in sinonasal ALI cultures (nasal epithelial cells; non-T2R38 bitter agonists): not

colistin sulfate
% green (viable) PAO1 (Pseudomonas aeruginosa [11]): 4±2%

sodium thiocyanate [NaSCN]
F/Fo after stimulation with 5 mM NaSCN (T2R38 [3]; +L-NAME (50 μM)): 1.24±0.07 | F/Fo after stimulation with 5 mM NaSCN (T2R38 [3]; control (no L-NAME)): 1.33±0.08 | DAF-FM fluorescence increase after 5 min NaSCN (T2R38 [8]): 61±23 units | DAF-FM fluorescence increase after 5 min NaSCN (T2R38 [9]): 202±38 units
